Measured values from EP1206941A1, “ACTIVITY PO[…] CHEMOTHERAPEUTICS, ANTICANCER COMPOSITIONS AND METHOD FOR POTENTIATING THE ACTIVITY OF CHEMOTHERAPEUTICS” (HISAMITSU PHARMACEUTICAL CO. INC., priority 1999, dated 2001).
Like-named read-outs stand apart in the source and are kept apart here. *1 amine or outer side, *2 acyl side, *3 side chain or, on linkers, in order; H or OH if unused. Where a SMILES comes first, the peptide text is derived from it. Bridges are numbered along the chain shown (N, C = ends). Roman numbers before positions name the chains, in order. [ ]: non-standard residue; d: D form. Actinocin(9to1) = Cc1c2oc3c(C)ccc(C(=O)[*:1])c3nc-2c(C(=O)[*:2])c(N)c1=O; NMeV = CN[C@H](C(=O)O)C(C)C; Sar = CNCC(=O)O

Tested on: Murine melanoma B16 · BL6 cells
Experiment: Assay for apoptosis-inducing activity (TNF bioassay, crystal violet staining)
Format: cell-based
Conditions: for potentiation of apoptosis-inducing activity: ED50 alone versus ED50 in the presence of peptide (SEQ ID NO:2) 50 µg/ml; for EC50: Mus musculus, B16-BL6, 19 h, 19 hours, Probit method, read-out: ED50 (apoptosis-inducing activity)
Protocol: The potentiating effects on the apoptosis-inducing activity of chemotherapeutic agents were evaluated based on whether or not the apoptosis-inducing activity of anticancer agents of the apoptosis-inducing type would be affected by the combined use of the aforementioned synthetic peptide.
Specifically, the apoptosis-inducing activity of anticancer agents of three kinds of apoptosis-inducing type agents was compared between the presence of the peptide and the absence of the peptide. Determination of the apoptosis-inducing activity was carried out according to TNF bioassay (K. Hirano et al., J. Biochem., 105, 120, 1989). The details are provided below.
A 96-well was coated with human plasma fibronectin at a concentration of 5 µg/ml (prepared according to the method of Fukai et al., J. Biol. Chem., 266, 8807, 1991) and was subjected to blocking with bovine serum albumin (Sigma), after which it was suspended in a serum-free culture: the culture was a mixture of Dulbeccos Modified Eagle Medium and Ham F12 medium at a volume ratio of 1:1 and will be referred to as DMEM/Ham medium hereafter (Nissui Pharmaceutical Co. Ltd.). Murine melanoma B16 · BL6 cells were inoculated onto the plate at 2x10^4 cells/well. After cell adhesion and distention were confirmed by cultivating the cells at 37 °C and under 5% CO2 atmosphere for 2 hours, the culture supernatant was removed and a mixed solution comprising a chemotherapeutic agent and the peptide was added thereto. Cultivation was conducted for 19 hours. The peptide was prepared to give a final concentration of 50 µg/ml, and the chemotherapeutic agents were dissolved in DMEM/Ham medium at a variety of concentrations. As controls, only the peptide and only the chemotherapeutic agent at the same concentrations as those described were added. Cultivation was conducted for 19 hours. In Example 9 doxorubicin (abbreviated as DOX) was used; in Example 10 VCR was used; and in Example 11 AcD was used. DOX was also purchased from Sigma. After cultivation, the above mixed solution was removed and exchanged with a DMEM/HaM medium containing 10% bovine fetal serum (URH Biosciences) for further cultivation overnight. After fixing with 5% formaldehyde (Wako Pure Chemical Industries Ltd.), the cells having undergone apoptosis were removed through washing and the cells adhered to the plate were stained with a 0.5% crystal violet solution. Excessive dye was washed out with water. After lyzing the cells with 1% SDS and extracting the dye, absorbance at a wavelength of 595 nm was measured with a microplate reader (Spectra Rainbow Thermo; Wako Pure Chemical Industries Ltd.).

[1] = chemotherapeutic agent used alone
[2] = in the presence of peptide (SEQ ID NO:2) 50 µg/ml

Cc1c2oc3c(C)ccc(C(=O)N[C@@H]4C(=O)N[C@H](C(C)C)C(=O)N5CCC[C@H]5C(=O)N(C)CC(=O)N(C)[C@@H](C(C)C)C(=O)O[C@@H]4C)c3nc-2c(C(=O)N[C@@H]2C(=O)N[C@H](C(C)C)C(=O)N3CCC[C@H]3C(=O)N(C)CC(=O)N(C)[C@@H](C(C)C)C(=O)O[C@@H]2C)c(N)c1=O [AcD, actinomycin D] (I: T[dV]P[Sar][NMeV] / II: T[dV]P[Sar][NMeV]; ester I:1-I:C, II:1-II:C; linker I:N-II:N via Actinocin(9to1))
potentiation of apoptosis-inducing activity: ~40,000 fold | EC50 [1]: 763 nM | EC50 [2]: 0.0145 nM

COc1cccc2c1C(=O)c1c(O)c3c(c(O)c1C2=O)C[C@@](O)(C(=O)CO)C[C@@H]3O[C@H]1C[C@H](N)[C@H](O)[C@H](C)O1 [DOX, doxorubicin]
potentiation of apoptosis-inducing activity: ~7.6 fold | EC50 [1]: 0.293 mg/L | EC50 [2]: 0.039 mg/L

CC[C@]1(O)C[C@H]2CN(CCc3c([nH]c4ccccc34)[C@@](C(=O)OC)(c3cc4c(cc3OC)N(C=O)[C@H]3[C@@](O)(C(=O)OC)[C@H](OC(C)=O)[C@]5(CC)C=CCN6CC[C@]43[C@@H]65)C2)C1 [VCR, vincristin]
potentiation of apoptosis-inducing activity: ~27,000 fold | EC50 [1]: 111 mg/L | EC50 [2]: 0.0036 mg/L
